A word on the TGI: it is the concentration giving total growth inhibition. A word on the GI50: it is the concentration that inhibits growth by half.

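Five compound concentrations were applied to cells in 96-well plates for 48 hours; endpoints were derived by simple linear interpolation of the resulting dose-response curve. GI50 is the concentration that inhibits growth by half. TGI marks complete inhibition of growth.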

What all share (assay): DTP human tumour cell line panel, 48 h
Assay [1] has as its system ACHN renal.
In assay [2] the test system is HL-60(TB) leukemia.
Assay [3] has as its system M14 melanoma.
Assay [4] has as its system DU-145 prostate.
Assay [5] has as its system SW-620 colon.
Assay [6] relates to RPMI-8226 leukemia.
Assay [7] relates to HT29 colon.
Assay [8] concerns A549 NSCLC.
Assay [9] concerns OVCAR-5 ovarian.
Assay [10] concerns SF-268 CNS.

For the compound `O=C(NCCCl)Nc1cccnc1`, the TGI in assay [1] is 27.4 µM; in [2], greater than 100 µM; in assay [3] it was greater than 100 µM; in assay [4] it was 29.4 µM; in assay [5], greater than 100 µM; in [6] it was 86.6 µM. Also, the TGI in assay [7] stood at 34.9 µM; in assay [8], 99.5 µM.

On to `O=C(O)c1cc(=O)cc(C(=O)O)o1`, for which the GI50 in assay [1], in assay [2], in assay [4], in assay [5], in [9] and in assay [6] was greater than 100 µM in each case. In addition, the GI50 in assay [7], in assay [8] and in [10] was greater than 100 µM in each case. The TGI in assay [1], in [2], in [4], in assay [5], in assay [9] and in [6] was greater than 100 µM in each case. The concentration for total growth inhibition (TGI) in assay [7], in assay [8] and in [10] was greater than 100 µM each time.

For `O=C(COc1cccc(/C=C2\CSc3ccc(Cl)cc3C2=O)c1)c1ccc(Cl)cc1`, the GI50 in [1] is 12.5 µM; in assay [2], 2.69 µM; in assay [3] it was 12.4 µM; in [4], 13.6 µM; in assay [5] it was 1.67 µM; in assay [9], 12.5 µM. The GI50 in [7] is 2.08 µM; in [8] it was 77.6 µM; in [10], 13.6 µM. The TGI in assay [1] turned out to be 25 µM; in assay [2] it was 6.87 µM; in assay [3] it was 28.2 µM; in assay [4] it was 27.9 µM; in [5], 3.09 µM; in [9] it was 29.8 µM. Moreover, the figures for the TGI in assay [7], in [8] and in [10] were 4.18 µM, greater than 100 µM and 30 µM, respectively.

`Oc1c(Cl)cc(Cl)cc1/C=N/Nc1nnc(N/N=C/c2cc(Cl)cc(Cl)c2O)c2ccccc12`: the GI50 in [1] is 0.394 µM; in assay [3], 0.434 µM; in assay [4], 0.715 µM; in [5], 0.416 µM; in [9], 0.957 µM; in assay [6] it was 0.405 µM. Moreover, the GI50 in assay [7] is 0.595 µM; in [8], 0.419 µM; in assay [10], 0.407 µM. Further, the TGI in [1], in assay [3], in assay [4], in assay [5], in assay [9] and in [6] was greater than 100 µM throughout. Also, the TGI in assay [7], in assay [8] and in assay [10] was greater than 100 µM throughout.

Take `CC(C)(C)c1cc(/C=N/NC(=O)c2ccccc2NC(=O)c2cccs2)c(O)c(C(C)(C)C)c1`: the concentration for 50% growth inhibition (GI50) is 0.413 µM in [1]; 0.459 µM in assay [3]; 4.13 µM in assay [4]; 1.38 µM in [5]; 2.83 µM in assay [9]; 1.05 µM in assay [6]. Further, the GI50 in [7] was 0.798 µM; in [8], 0.796 µM; in assay [10] it was 0.668 µM. Further, the TGI in assay [1] is 19.2 µM; in assay [3] it was 16 µM; in [4], greater than 100 µM; in assay [5], 17.8 µM; in assay [9], 62.4 µM; in [6], 14 µM. Further, the total growth inhibition concentration (TGI) in assay [7] is greater than 100 µM; in assay [8] it was 17.9 µM; in assay [10] it was greater than 100 µM.

`Oc1ccc2c3c1OC1c4[nH]ncc4C[C@H]4[C@@H](C2)N(CC2CC2)CC[C@]314` (stereo partly drawn): the total growth inhibition concentration (TGI) in assay [1], in assay [2], in [3], in [4], in [9] and in [6] was greater than 100 µM throughout. Further, the total growth inhibition concentration (TGI) in assay [7], in assay [8] and in assay [10] was greater than 100 µM each time.

Regarding `C=C1C(=O)O[C@H]2[C@H](OC(C)=O)[C@@H](C)CCCC3(C)OC3CCC3(CO3)[C@H](O)C[C@@H]12` (stereo partly drawn), the GI50 in assay [1] was 10.4 µM; in assay [3], 11.1 µM; in assay [4], 3.92 µM; in [5] it was 5.16 µM; in assay [9], 2.38 µM; in assay [6], 1.38 µM. For the same compound, the GI50 in assay [7] was 3.42 µM; in assay [8], 19.8 µM; in assay [10], 15.2 µM. Further, the TGI is 22.3 µM in assay [1]; 23.6 µM in assay [3]; 14.3 µM in assay [4]; 19.6 µM in [5]; 12 µM in [9]; 4.08 µM in [6]. In addition, the values for the concentration for total growth inhibition (TGI) in assay [7], in [8] and in [10] were greater than 100 µM, 74.8 µM and 40.4 µM, respectively.

As to `Cn1cc(-c2nc(-c3c[nH]c4ncccc34)cs2)c2ccccc21`, the GI50 in [1] is 31.7 µM; in [2], 10.7 µM; in assay [3], 19.3 µM; in [4], 62.8 µM; in assay [5], 35.9 µM; in [9], 0.762 µM. The figures for the GI50 in assay [6], in assay [8] and in assay [10] were 4.6 µM, 26.6 µM and 89.4 µM, respectively. In addition, the total growth inhibition concentration (TGI) in assay [1] is greater than 100 µM; in assay [2], greater than 100 µM; in [3] it was greater than 100 µM; in [4], greater than 100 µM; in assay [5] it was greater than 100 µM; in [9], 73.9 µM. Further, the TGI in assay [6], in assay [8] and in assay [10] was greater than 100 µM in each case.

Regarding `COc1cc(N2C(=O)[C@H](c3ccccc3)C2c2ccc(SC)cc2)cc(OC)c1OC` (stereo partly drawn), the 50% growth inhibitory concentration (GI50) in [1] is 0.0454 µM; in [2], 0.023 µM; in assay [4] it was 0.0373 µM; in assay [5], 0.0382 µM; in assay [9], 0.0613 µM; in assay [6] it was 0.0416 µM. In addition, the concentration for 50% growth inhibition (GI50) is 0.0324 µM in assay [7], 0.0374 µM in assay [8] and 0.0485 µM in assay [10]. In addition, the TGI is greater than 100 µM in assay [1]; 0.0666 µM in assay [2]; greater than 100 µM in assay [4]; greater than 100 µM in assay [5]; greater than 100 µM in assay [9]; 7.68 µM in assay [6]. The TGI in [7] was 1.76 µM; in [8], greater than 100 µM; in assay [10] it was greater than 100 µM.
